Source: ChEMBL document CHEMBL1145534 (2007)
Converted amounts (≈) assume the structure as drawn.

What was measured:
Assay type in all cases: functional
Corynebacterium jeikeium [1] = assay: Antimicrobial activity against Corynebacterium jeikeium at 0.25 ug/ml by broth microdilution method
Corynebacterium jeikeium [2] = assay: Antimicrobial activity against Corynebacterium jeikeium at 0.5 ug/ml by broth microdilution method
[3] = system: Corynebacterium pseudodiphtheriticum; assay: Antimicrobial activity against Corynebacterium pseudodiphtheriticum at 0.12 ug/ml by broth microdilution method
[4] = system: Corynebacterium pseudodiphtheriticum; assay: Antimicrobial activity against Corynebacterium pseudodiphtheriticum at 1 ug/ml by broth microdilution method
Corynebacterium striatum = assay: Antimicrobial activity against Corynebacterium striatum at 0.12 ug/ml by broth microdilution method
Enterococcus avium = assay: Antimicrobial activity against Enterococcus avium at 0.25 ug/ml by broth microdilution method
[5] = system: Enterococcus casseliflavus; assay: Antimicrobial activity against Enterococcus casseliflavus at <= 0.06 ug/ml by broth microdilution method
[6] = system: Enterococcus casseliflavus; assay: Antimicrobial activity against Enterococcus casseliflavus at 0.25 ug/ml by broth microdilution method
[7] = system: Enterococcus casseliflavus; assay: Antimicrobial activity against Enterococcus casseliflavus at 2 ug/ml by broth microdilution method
Enterococcus durans [8] = assay: Antimicrobial activity against Enterococcus durans at 0.25 ug/ml by broth microdilution method
Enterococcus durans [9] = assay: Antimicrobial activity against Enterococcus durans at 0.5 ug/ml by broth microdilution method
Enterococcus durans [10] = assay: Antimicrobial activity against Enterococcus durans at 1 ug/ml by broth microdilution method
Enterococcus durans [11] = assay: Antimicrobial activity against Enterococcus durans at 2 ug/ml by broth microdilution method
Enterococcus gallinarum [12] = assay: Antimicrobial activity against Enterococcus gallinarum at <= 0.06 ug/ml by broth microdilution method
[13] = system: Streptococcus constellatus; assay: Antimicrobial activity against viridans group Streptococcus constellatus at 0.25 ug/ml by broth microdilution method
Streptococcus equinus [14] = assay: Antimicrobial activity against viridans group Streptococcus bovis at 0.25 ug/ml by broth microdilution method
Aerococcus [15] = assay: Antimicrobial activity against Aerococcus spp. at <= 0.06 ug/ml by broth microdilution method
Aerococcus [16] = assay: Antimicrobial activity against Aerococcus spp. at 0.12 ug/ml by broth microdilution method
Aerococcus [17] = assay: Antimicrobial activity against Aerococcus spp. at 1 ug/ml by broth microdilution method
Bacillus sp. = assay: Antimicrobial activity against Bacillus spp. at 0.25 ug/ml by broth microdilution method; settings: Bacillus sp. (in: firmicutes)
Bacillus cereus = assay: Antimicrobial activity against Bacillus cereus at 1 ug/ml by broth microdilution method
[18] = system: Corynebacterium amycolatum; assay: Antimicrobial activity against Corynebacterium amycolatum at <= 0.06 ug/ml by broth microdilution method
Streptococcus salivarius [19] = assay: Antimicrobial activity against viridans group Streptococcus salivarius at 0.5 ug/ml by broth microdilution method
Streptococcus salivarius [20] = assay: Antimicrobial activity against viridans group Streptococcus salivarius at 2 ug/ml by broth microdilution method
Streptococcus anginosus = assay: Antimicrobial activity against viridans group Streptococcus anginosus at 2 ug/ml by broth microdilution method
Enterococcus gallinarum [21] = assay: Antimicrobial activity against Enterococcus gallinarum at 0.12 ug/ml by broth microdilution method
Enterococcus gallinarum [22] = assay: Antimicrobial activity against Enterococcus gallinarum at 4 ug/ml by broth microdilution method
Enterococcus hirae = assay: Antimicrobial activity against Enterococcus hirae at 0.12 ug/ml by broth microdilution method
Enterococcus raffinosus = assay: Antimicrobial activity against Enterococcus raffinosus at 0.25 ug/ml by broth microdilution method
Listeria monocytogenes [23] = assay: Antimicrobial activity against Listeria monocytogenes at 0.25 ug/ml by broth microdilution method
Listeria monocytogenes [24] = assay: Antimicrobial activity against Listeria monocytogenes at 1 ug/ml by broth microdilution method
Micrococcus luteus [25] = assay: Antimicrobial activity against Micrococcus luteus at 0.12 ug/ml by broth microdilution method
Micrococcus luteus [26] = assay: Antimicrobial activity against Micrococcus luteus at 0.5 ug/ml by broth microdilution method
Rothia mucilaginosa [27] = assay: Antimicrobial activity against Rothia mucilaginosa at <= 0.06 ug/ml by broth microdilution method
Rothia mucilaginosa [28] = assay: Antimicrobial activity against Rothia mucilaginosa at 0.12 ug/ml by broth microdilution method
Rothia mucilaginosa [29] = assay: Antimicrobial activity against Rothia mucilaginosa at 0.5 ug/ml by broth microdilution method
Rothia mucilaginosa [30] = assay: Antimicrobial activity against Rothia mucilaginosa at 2 ug/ml by broth microdilution method
Aerococcus [31] = assay: Antimicrobial activity against Aerococcus spp. by broth microdilution method
[32] = system: Corynebacterium pseudodiphtheriticum; assay: Antimicrobial activity against Corynebacterium pseudodiphtheriticum by broth microdilution method
Micrococcus luteus [33] = assay: Antimicrobial activity against Micrococcus luteus by broth microdilution method
Streptococcus mutans [34] = assay: Antimicrobial activity against viridans group Streptococcus mutans at 1 ug/ml by broth microdilution method
Streptococcus oralis [35] = assay: Antimicrobial activity against viridans group Streptococcus oralis at 0.12 ug/ml by broth microdilution method
Streptococcus oralis [36] = assay: Antimicrobial activity against viridans group Streptococcus oralis at 2 ug/ml by broth microdilution method
Streptococcus sanguinis = assay: Antimicrobial activity against viridans group Streptococcus sanguinis at 0.12 ug/ml by broth microdilution method
Streptococcus equinus [37] = assay: Antimicrobial activity against viridans group Streptococcus bovis at 1 ug/ml by broth microdilution method
Streptococcus equinus [38] = assay: Antimicrobial activity against viridans group Streptococcus bovis at 2 ug/ml by broth microdilution method
[39] = system: Streptococcus constellatus; assay: Antimicrobial activity against viridans group Streptococcus constellatus at <= 0.06 ug/ml by broth microdilution method
Streptococcus gordonii = assay: Antimicrobial activity against viridans group Streptococcus gordonii at 0.5 ug/ml by broth microdilution method
Streptococcus mitis [40] = assay: Antimicrobial activity against viridans group Streptococcus mitis at 0.5 ug/ml by broth microdilution method
Streptococcus mitis [41] = assay: Antimicrobial activity against viridans group Streptococcus mitis at 1 ug/ml by broth microdilution method
Streptococcus mitis [42] = assay: Antimicrobial activity against viridans group Streptococcus mitis at 2 ug/ml by broth microdilution method
[43] = system: Streptococcus vestibularis; assay: Antimicrobial activity against viridans group Streptococcus vestibularis at <= 0.06 ug/ml by broth microdilution method
[44] = system: Streptococcus vestibularis; assay: Antimicrobial activity against viridans group Streptococcus vestibularis at 0.5 ug/ml by broth microdilution method
[45] = system: Streptococcus vestibularis; assay: Antimicrobial activity against viridans group Streptococcus vestibularis at 1 ug/ml by broth microdilution method
Streptococcus mitis [46] = assay: Antimicrobial activity against viridans group Streptococcus mitis by broth microdilution method
Streptococcus salivarius [47] = assay: Antimicrobial activity against viridans group Streptococcus salivarius by broth microdilution method
Streptococcus mutans [48] = assay: Antimicrobial activity against viridans group Streptococcus mutans by broth microdilution method

CC(=O)NC[C@H]1CN(c2ccc(N3CCOCC3)c(F)c2)C(=O)O1 [LINEZOLID] was tested, and the inhibition at 0.25 µg/mL (Corynebacterium jeikeium [1]) was 67.8%, the inhibition at 0.5 µg/mL (Corynebacterium jeikeium [2]) was 98.3% and the inhibition at 0.12 µg/mL [3] was 0%. The inhibition at 1 µg/mL [4] was 100%, the inhibition at 0.12 µg/mL (Corynebacterium striatum) was 12% and the inhibition at 0.25 µg/mL (Enterococcus avium) was 0%. The Inhibition [5] was 0%, the inhibition at 0.25 µg/mL [6] was 0% and the inhibition at 2 µg/mL [7] was 96.9%. It also gave an inhibition at 0.25 µg/mL (Enterococcus durans [8]) of 2%, an inhibition at 0.5 µg/mL (Enterococcus durans [9]) of 8.2% and an inhibition at 1 µg/mL (Enterococcus durans [10]) of 32.7%. For the same molecule, the inhibition at 2 µg/mL (Enterococcus durans [11]) was 100%, the Inhibition (Enterococcus gallinarum [12]) was 0% and the inhibition at 0.25 µg/mL [13] was 12.4%. For the same molecule, the inhibition at 0.25 µg/mL (Streptococcus equinus [14]) was 2.7%, the Inhibition (Aerococcus [15]) was 0% and the inhibition at 0.12 µg/mL (Aerococcus [16]) was 0%. It also gave an inhibition at 1 µg/mL (Aerococcus [17]) of 63.6%, an inhibition at 0.25 µg/mL (Bacillus sp.) of 4.9% and an inhibition at 1 µg/mL (Bacillus cereus) of 98.3%. The Inhibition [18] was 0%, the inhibition at 0.5 µg/mL (Streptococcus salivarius [19]) was 46.2% and the inhibition at 2 µg/mL (Streptococcus salivarius [20]) was 100%. It also gave an inhibition at 2 µg/mL (Streptococcus anginosus) of 100%, an inhibition at 0.12 µg/mL (Enterococcus gallinarum [21]) of 0% and an inhibition at 4 µg/mL (Enterococcus gallinarum [22]) of 100%. It also gave an inhibition at 0.12 µg/mL (Enterococcus hirae) of 0%, an inhibition at 0.25 µg/mL (Enterococcus raffinosus) of 0% and an inhibition at 0.25 µg/mL (Listeria monocytogenes [23]) of 0%. The inhibition at 1 µg/mL (Listeria monocytogenes [24]) was 29.2%, the inhibition at 0.12 µg/mL (Micrococcus luteus [25]) was 0% and the inhibition at 0.5 µg/mL (Micrococcus luteus [26]) was 75.9%. It also gave an Inhibition (Rothia mucilaginosa [27]) of 0%, an inhibition at 0.12 µg/mL (Rothia mucilaginosa [28]) of 5.6% and an inhibition at 0.5 µg/mL (Rothia mucilaginosa [29]) of 83.3%. For the same molecule, the inhibition at 2 µg/mL (Rothia mucilaginosa [30]) was 100%, the MIC50 (Aerococcus [31]) was 1 µg/mL (≈ 2.96 µM) and the MIC90 (Aerococcus [31]) was 2 µg/mL (≈ 5.93 µM). The MIC50 [32] was 0.5 µg/mL (≈ 1.48 µM), the MIC90 [32] was 0.5 µg/mL (≈ 1.48 µM) and the MIC50 (Micrococcus luteus [33]) was 0.5 µg/mL (≈ 1.48 µM). The MIC90 (Micrococcus luteus [33]) was 1 µg/mL (≈ 2.96 µM), the inhibition at 1 µg/mL (Streptococcus mutans [34]) was 89.5% and the inhibition at 0.12 µg/mL (Streptococcus oralis [35]) was 0.7%. For the same molecule, the inhibition at 2 µg/mL (Streptococcus oralis [36]) was 99.3%, the inhibition at 0.12 µg/mL (Streptococcus sanguinis) was 0.7% and the inhibition at 1 µg/mL (Streptococcus equinus [37]) was 87.2%. The inhibition at 2 µg/mL (Streptococcus equinus [38]) was 100%, the Inhibition [39] was 1.1% and the inhibition at 0.5 µg/mL (Streptococcus gordonii) was 33.3%. For the same molecule, the inhibition at 0.5 µg/mL (Streptococcus mitis [40]) was 33.4%, the inhibition at 1 µg/mL (Streptococcus mitis [41]) was 99.1% and the inhibition at 2 µg/mL (Streptococcus mitis [42]) was 100%. It also gave an Inhibition [43] of 0%, an inhibition at 0.5 µg/mL [44] of 36.4% and an inhibition at 1 µg/mL [45] of 100%. For the same molecule, the MIC50 (Streptococcus mitis [46]) was 1 µg/mL (≈ 2.96 µM), the MIC90 (Streptococcus mitis [46]) was 1 µg/mL (≈ 2.96 µM) and the MIC50 (Streptococcus salivarius [47]) was 1 µg/mL (≈ 2.96 µM). It also gave an MIC90 (Streptococcus salivarius [47]) of 1 µg/mL (≈ 2.96 µM), an MIC50 (Streptococcus mutans [48]) of 1 µg/mL (≈ 2.96 µM) and an MIC90 (Streptococcus mutans [48]) of 2 µg/mL (≈ 5.93 µM).
